Measurements: paper PMC12395807, “Chemoreceptor family in plant-associated bacteria responds preferentially to the plant signal molecule glycerol 3-phosphate” (Genome Biology, 2025)
Read-outs that look alike come from different tables or passages of the source.

Assays:
[1] = target: LBD of chemoreceptor R2 (WP_136157342.1) (Brenneria roseae, UniProt A0A2U1TV64, H128N/K136R); type: binding
Description: (§1) Plasmids for the overexpression of the different proteins were transformed into E. coli BL21(DE3). The resulting strains were grown under continuous stirring (200 rpm) at 30 °C in 2-L Erlenmeyer flasks containing 500 mL of LB medium supplemented with 50 μg/mL kanamycin. At an OD660 of 0.5, protein expression was induced by the addition of 0.1 mM isopropyl β-D-1-thiogalactopyranoside. Growth was continued at 16 °C overnight prior to cell harvesting by centrifugation at 10,000 × g for 20 min. Cell pellets were resuspended in buffer A (Additional file 2: Table S4) and subsequently broken by French press treatment at 62.5 lb/in^2. After centrifugation at 20,000 × g for 30 min, the supernatants were loaded onto 5-mL HisTrap HP columns (Amersham Biosciences) equilibrated with buffer A, and the proteins were eluted with a linear gradient of buffer B (Additional file 2: Table S4). All proteins contain a hexa-histidine tag at the N-terminal extension (Additional file 2: Table S3) and were purified at 4 °C. The purified proteins were dialyzed overnight into the corresponding analysis buffers (Additional file 2: Table S4) for immediate analysis.
(§2) All experiments were conducted on a VP microcalorimeter (Microcal, MA) at 15 °C for PacP-LBD and at 20 °C for the remaining proteins. Proteins were dialyzed into the analysis buffers specified in Additional file 2: Table S4, placed into the sample cell and titrated with aliquots of ligand solutions (1 to 10 mM) freshly prepared in dialysis buffer. The mean enthalpies measured from the injection of the ligands into the analysis buffer were subtracted from the raw titration data prior to data analysis with the MicroCal version of ORIGIN. The data were fitted with the “One binding site model” of ORIGIN.

[2] = target: ligand binding domain of the chemoreceptor ECA_RS12390 (PacP-LBD, R1, WP_011094075.1) (Pectobacterium atrosepticum, UniProt Q6D464); experiment: ITC binding to PacP-LBD; settings: 15 °C, Nb = no binding
Chain of ligand binding domain of the chemoreceptor ECA_RS12390 (PacP-LBD, R1, WP_011094075.1) (Q6D464 entry or part of it): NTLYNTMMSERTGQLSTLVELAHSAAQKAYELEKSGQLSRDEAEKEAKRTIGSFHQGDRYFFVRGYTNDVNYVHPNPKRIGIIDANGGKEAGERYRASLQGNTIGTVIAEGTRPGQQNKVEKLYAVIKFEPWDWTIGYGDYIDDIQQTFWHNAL
Description: as §1, §2

[3] = target: LBD of chemoreceptor R5 (WP_028444678.1); experiment: ITC binding to R5-LBD; parameters: species or system Chitinimonas koreensis; settings: 20 °C, Nb = no binding
Description: as §1, §2

[4] = target: LBD of chemoreceptor R10 (WP_028866120.1); experiment: ITC binding to R10-LBD; parameters: species or system Psychromonas aquimarina; settings: 20 °C, Nb = no binding
Description: as §1, §2

[5] = target: LBD of chemoreceptor R9 (WP_189529961.1) (Paludibacterium paludis, UniProt A0A918NWY2); experiment: ITC binding to R9-LBD; settings: 20 °C, Nb = no binding
Chain of LBD of chemoreceptor R9 (WP_189529961.1) (A0A918NWY2 entry or part of it): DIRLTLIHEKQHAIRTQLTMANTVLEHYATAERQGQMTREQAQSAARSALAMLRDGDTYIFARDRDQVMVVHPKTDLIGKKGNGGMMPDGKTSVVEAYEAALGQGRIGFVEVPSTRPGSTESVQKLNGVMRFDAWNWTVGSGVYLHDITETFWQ
Description: as §1, §2

[6] = target: LBD of chemoreceptor R6 (WP_174062248.1); experiment: ITC binding to R6-LBD; parameters: species or system Agrobacterium larrymoorei; settings: 20 °C, Nb = no binding
Description: as §1, §2

[7] = test system: ECA_RS12390-LBD (PacP-LBD); experiment: Thermal shift ligand screening of PacP-LBD; type: binding, Pectobacterium atrosepticum; settings: thermal shift assay, Biolog arrays PM1, PM2A, PM3B, PM4A
Description: Assays were carried out on a MyIQ2 Real-Time PCR instrument (Bio-Rad, Hercules, CA, USA). Ligand solutions were prepared by dissolving the array compounds in 50 µL of Milli-Q water, which, according to the manufacturer, corresponds to a concentration of 10–20 mM. Freshly purified proteins were dialyzed into analysis buffer (Additional file 2: Table S4). Compound arrays PM1, PM2A (carbon sources), PM3B (nitrogen sources), and PM4A (phosphorus and sulfur sources) from Biolog (https://www.biolog.com/) were used. The compositions of these arrays are provided in Additional file 2: Table S1. The experiments were conducted in 96-well plates, and each assay mixture contained 20 µL of the dialyzed protein (at 80–50 µM), 2 µL of 5 × SYPRO orange (Life Technologies, Eugene, Oregon, USA), and 2.5 µL of the resuspended array compound or the equivalent amount of buffer in the ligand-free control. The samples were heated from 23 to 85 °C at a scan rate of 1 °C/min. The protein unfolding curves were monitored by detecting changes in SYPRO® Orange fluorescence. The Tm values were determined from the first derivative values of the raw fluorescence data.

[8] = test system: Pectobacterium atrosepticum SCRI1043; experiment: Growth experiment, sole carbon source; type: cell-based; settings: PFM9 minimal medium, 5 mM ligand, 30 °C, 48 h
Description: (§3) P. atrosepticum SCRI1043 was cultured overnight in phosphate-free M9-based medium (PFM9) supplemented with 20 mM glucose as the carbon source and 500 µM inorganic phosphate as the phosphate source. Cultures were washed and then diluted to an OD600 of 0.02 in PFM9 supplemented with different PacP ligands as the sole carbon or phosphorous source at a final concentration of 5 mM. Subsequently, 200 µL aliquots of these cultures were transferred into microwell plates, which were subsequently grown at 30 °C on a Bioscreen microbiological growth analyzer (Oy Growth Curves Ab Ltd., Helsinki, Finland) for 48 h.

P. atrosepticum SCRI1043 = experiment: Quantitative capillary chemotaxis assay, wild type; type: cell-based, Pectobacterium atrosepticum; settings: wild type SCRI1043, 1 mM ligand, 30 min
Description: (§4) Overnight cultures of P. atrosepticum SCRI1043 were grown at 30 °C in minimal medium. At an OD660 of 0.4–0.45, the cultures were washed twice with chemotaxis buffer (50 mM K2HPO4/KH2PO4, 20 μM EDTA, 0.05% (v/v) glycerol, pH 7.0) and diluted to an OD660 of 0.1 in the same buffer. Subsequently, 230 μL of the resulting bacterial suspension was placed into the wells of 96-well plates. One-microliter capillary tubes (P1424, Microcaps; Drummond Scientific) were heat-sealed at one end and filled with either chemotaxis buffer (negative control) or chemotaxis buffer containing PacP ligands at a concentration of 1 mM. The capillaries were immersed in the bacterial suspensions at their open ends. After 30 min at room temperature, the capillaries were removed from the bacterial suspensions, rinsed with sterile water, and the contents were expelled into 1 mL of 40 mM K2HPO4, 15 mM KH2PO4. Serial dilutions were plated onto minimal medium supplemented with 15 mM glucose as the carbon source. The number of colony-forming units was determined after 36 h of incubation at 30 °C. In all the cases, the data were corrected with the number of cells that swam into the buffer-containing capillaries.

[9] = target: LBD of chemoreceptor R3 (WP_006464688.1) (Herbaspirillum frisingense, UniProt A0ABU1PC34); experiment: ITC binding to R3-LBD; settings: 20 °C, Nb = no binding
Chain of LBD of chemoreceptor R3 (WP_006464688.1) (A0ABU1PC34 entry or part of it): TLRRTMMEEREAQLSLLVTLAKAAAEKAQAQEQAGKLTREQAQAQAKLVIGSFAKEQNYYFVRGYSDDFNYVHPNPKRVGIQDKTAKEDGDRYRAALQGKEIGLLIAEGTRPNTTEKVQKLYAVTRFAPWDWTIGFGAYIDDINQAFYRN
Description: as §1, §2

[10] = target: LBD of chemoreceptor R7 (WP_019915375.1); experiment: ITC binding to R7-LBD; parameters: species or system Methyloversatilis discipulorum; settings: 20 °C, Nb = no binding
Chain of LBD of chemoreceptor R7 (WP_019915375.1) (as listed by the source): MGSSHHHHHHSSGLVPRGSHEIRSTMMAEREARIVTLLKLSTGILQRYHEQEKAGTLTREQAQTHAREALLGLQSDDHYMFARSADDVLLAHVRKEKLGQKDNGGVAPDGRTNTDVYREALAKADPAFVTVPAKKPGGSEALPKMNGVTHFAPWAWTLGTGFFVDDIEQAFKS
Description: as §1, §2

[11] = test system: Pectobacterium atrosepticum SCRI1043; experiment: Growth experiment, sole phosphorus source; type: cell-based; settings: PFM9 minimal medium, 5 mM ligand, 30 °C, 48 h
Description: as §3

[12] = test system: P. atrosepticum SCRI1043 pacP mutant (MpacP); experiment: Quantitative capillary chemotaxis assay, pacP mutant; type: cell-based, Pectobacterium atrosepticum; settings: 1 mM ligand
Description: A mutant defective in ECA_RS12390 was constructed by homologous recombination using a derivative plasmid of the suicide vector pKNG101. Briefly, a 0.5-kb fragment corresponding to the region encoding the LBD of ECA_RS12390 was amplified by the primers specified in Additional file 2: Table S2 and cloned into pGEM®-T. The resulting plasmid pGEM::ECA_RS12390 was digested with XmaI, and the 0.5-kb insert was cloned into the same site at pKNG101 to generate pKNG101::ECA_RS12390. This plasmid was subsequently transformed into P. atrosepticum SRCI1043 via biparental conjugation using E. coli β2163. All the plasmids were verified by PCR and sequencing. The pETb(+) derivatives encoding the LBD of the different receptors analyzed in this study (Table 1) were purchased from GeneScript. Plasmid pBBR-ECA_RS12390 was constructed by amplifying the pacP gene using the primers detailed in Additional file 2: Table S2 and cloning of the PCR product into the NdeI/BamHI sites of pBBR1MCS2_START. The sequences of the proteins analyzed in this study are provided in Additional file 2: Table S3. The ECA_RS12390 nucleotide sequence is available in the published genome of P. atrosepticum SCRI1043 [60].
as §4

[13] = target: LBD of chemoreceptor R4 (WP_158281851.1) (Rivihabitans pingtungensis, UniProt A0A318KJN4); experiment: ITC binding to R4-LBD; parameters: species or system Rivicola pingtungensis; settings: 20 °C, Nb = no binding
Chain of LBD of chemoreceptor R4 (WP_158281851.1) (A0A318KJN4 entry or part of it): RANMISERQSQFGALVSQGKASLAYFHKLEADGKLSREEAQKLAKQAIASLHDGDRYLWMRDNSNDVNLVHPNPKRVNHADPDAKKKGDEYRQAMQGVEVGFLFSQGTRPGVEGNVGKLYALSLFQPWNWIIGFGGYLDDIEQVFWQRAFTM
Description: as §1, §2

ITC binding to R7-LBD = experiment: ITC binding to R7-LBD; parameters: species or system Methyloversatilis discipulorum; settings: 20 °C, Nb = no binding
Description: as §1, §2

[14] = test system: Bdellovibrio bacteriovorus; parameters: method as in PMID 119030, PMID 500565; settings: cited from earlier work
Bacillus subtilis = test system: Bacillus subtilis; parameters: method as in PMID 119030, PMID 500565; settings: cited from earlier work
[15] = ITC, 20 °C, R2 LBD, Nb = no binding

Chain of LBD of chemoreceptor R2 (WP_136157342.1) (A0A2U1TV64 28-178 H128N/K136R): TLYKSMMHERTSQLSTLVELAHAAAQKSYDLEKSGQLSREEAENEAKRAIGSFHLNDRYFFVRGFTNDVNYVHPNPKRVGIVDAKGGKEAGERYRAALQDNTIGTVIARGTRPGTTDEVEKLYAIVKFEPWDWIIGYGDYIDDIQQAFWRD

CCCCCCC(N)C(=O)O (racemic) [D,L-aminocaprylic acid]
KD [1, 15]: did not reveal binding

O=C(O)[C@H](CO)OP(=O)(O)O [2-phosphoglycerate]
KD [2]: No binding

O=C(O)CC(Br)C(=O)O (stereo not shown) [Bromosuccinate]
KD [3]: Nb | KD [4]: Nb | Kd [5]: 200 ± 13 µM | KD [6]: Nb

O=C(O)CC(O)(CC(=O)O)C(=O)O [Citrate]
Kd [3]: 10 ± 2 µM | KD [4]: Nb | KD [5]: Nb | KD [6]: Nb

O=C(O)/C=C/C(=O)O [Fumarate]
Kd [3]: 68 ± 6 µM | KD [4]: Nb | KD [5]: Nb | Kd [6]: 90 ± 4 µM

O=C(O)CO [Glycolate]
KD [3]: Nb | Kd [4]: 322 ± 114 µM | KD [5]: Nb | KD [6]: Nb

N[C@@H](CS(=O)(=O)O)C(=O)O [L-cysteic acid]
KD [1, 15]: did not reveal binding

C[C@H](O)C(=O)O [L-lactate]
KD [3]: Nb | Kd [4]: 463 ± 51 µM | KD [5]: Nb | KD [6]: Nb

O=C(O)CC(O)C(=O)O (stereo not shown) [Malate]
Kd [3]: 61 ± 2 µM | KD [4]: Nb | Kd [5]: 185 ± 5 µM | Kd [6]: 63 ± 1 µM

CC(CC(=O)O)C(=O)O (stereo not shown) [Methylsuccinate]
KD [3]: Nb | KD [4]: Nb | Kd [5]: 254 ± 53 µM | KD [6]: Nb

CC(=O)C(=O)O [Pyruvate]
KD [2]: did not bind

O=C(O)CCC(=O)O [Succinate]
Kd [3]: 127 ± 5 µM | Kd [4]: 362 ± 23 µM | KD [5]: Nb | Kd [6]: 90 ± 4 µM

O=C(O)CC(CC(=O)O)C(=O)O [Tricarballylate]
Kd [3]: 15 ± 1 µM | KD [4]: Nb | Kd [5]: 138 ± 33 µM | KD [6]: Nb

CC(=O)O [acetic acid]
KD [1]: did not reveal binding

CC(=O)CC(=O)O [acetoacetic acid]
KD [1, 15]: did not reveal binding

CCCCCC(=O)O [caproic acid]
KD [1, 15]: did not reveal binding

NC(=O)OP(=O)(O)O [carbamoylphosphate]
Tm change with respect to the ligand-free protein [7]: significant increases in Tm | KD [2]: did not result in measurable heat release

O=C(CO)COP(=O)(O)O [dihydroxyacetone phosphate]
KD [3]: Nb | KD [4]: Nb | growth as sole carbon source [8]: devoid of apparent metabolic value | chemotaxis (capillary assay) (P. atrosepticum SCRI1043): Modest chemoattraction | Kd [2]: 13 ± 1 µM | KD [9]: bound | Kd [9]: 109 ± 14 µM | KD [10]: Nb | growth as sole phosphorus source [11]: devoid of apparent metabolic value | KD [5]: Nb | chemotaxis (capillary assay) [12]: Only glycerol 2-phosphate served as an attractant for the mutant | Kd [13]: 230 ± 10 µM | KD [6]: Nb

O=CO [formic acid]
KD [1]: did not reveal binding

O=CC(CO)OP(=O)(O)O (stereo not shown) [glyceraldehyde 2-phosphate]
KD [10]: bound

O=P(O)(O)OC(CO)CO [glycerol 2-phosphate]
KD [3]: Nb | KD [4]: Nb | chemotaxis (capillary assay) (P. atrosepticum SCRI1043): Modest chemoattraction | Kd [2]: 72 ± 2 µM | KD [9]: bound | Kd [9]: 36 ± 2 µM | Kd (ITC binding to R7-LBD): 223 ± 45 µM | growth as sole phosphorus source [11]: permitted growth | KD [5]: Nb | chemotaxis (capillary assay) [12]: served as an attractant | chemotaxis [14]: weak chemotaxis | chemotaxis (Bacillus subtilis): weak chemotaxis | Kd [13]: 60 ± 2 µM | KD [6]: Nb

CC(O)C(=O)O (stereo not shown) [lactate]
KD [2]: did not bind

CCC(=O)O [propionic acid]
KD [1, 15]: did not reveal binding
